According to the NIST ThermoML archive (doi:10.1021/acs.jced.5b00105):
Numbers after ± are expanded uncertainties.

Experiment: xn = mol fraction of the nth substance listed
Details: 100 kPa, Liquid; for mass density: Vibrating tube method; for viscosity: Concentric cylinders viscometry

A mass density (308.15 K, x1 = 0.0999) of 691.83 ± 0.19 kg/m3, a mass density (308.15 K, x1 = 0.2002) of 703.8 ± 0.18 kg/m3 and a mass density (308.15 K, x1 = 0.3001) of 715.4 ± 0.18 kg/m3 were found for `CCCCC1CCCCC1` [butylcyclohexane] + CC(C)CC(C)(C)C in this work. For the same molecule, the mass density (308.15 K, x1 = 0.3996) was 726.61 ± 0.18 kg/m3, the mass density (308.15 K, x1 = 0.5005) was 737.66 ± 0.17 kg/m3 and the mass density (308.15 K, x1 = 0.6003) was 748.29 ± 0.17 kg/m3. The mass density (308.15 K, x1 = 0.6994) was 758.58 ± 0.16 kg/m3, the mass density (308.15 K, x1 = 0.8) was 768.72 ± 0.16 kg/m3 and the mass density (308.15 K, x1 = 0.9001) was 778.55 ± 0.16 kg/m3. The mass density (308.15 K, x1 = 1) was 788.12 ± 0.15 kg/m3, the viscosity (313.15 K, x1 = 0.0999) was 0.464 ± 0.074 mPa·s and the viscosity (313.15 K, x1 = 0.2002) was 0.502 ± 0.08 mPa·s. It also gave a viscosity (313.15 K, x1 = 0.3001) of 0.544 ± 0.087 mPa·s, a viscosity (313.15 K, x1 = 0.3996) of 0.588 ± 0.094 mPa·s and a viscosity (313.15 K, x1 = 0.5005) of 0.638 ± 0.1 mPa·s. For the same molecule, the viscosity (313.15 K, x1 = 0.6003) was 0.691 ± 0.11 mPa·s, the viscosity (313.15 K, x1 = 0.6994) was 0.749 ± 0.12 mPa·s and the viscosity (313.15 K, x1 = 0.8) was 0.814 ± 0.13 mPa·s. For the same molecule, the viscosity (313.15 K, x1 = 0.9001) was 0.883 ± 0.14 mPa·s, the viscosity (313.15 K, x1 = 1) was 0.961 ± 0.15 mPa·s and the mass density (313.15 K, x1 = 0.0999) was 687.7 ± 0.19 kg/m3. For the same molecule, the mass density (313.15 K, x1 = 0.2002) was 699.73 ± 0.19 kg/m3, the mass density (313.15 K, x1 = 0.3001) was 711.37 ± 0.18 kg/m3 and the mass density (313.15 K, x1 = 0.3996) was 722.64 ± 0.18 kg/m3. It also gave a mass density (313.15 K, x1 = 0.5005) of 733.72 ± 0.17 kg/m3, a mass density (313.15 K, x1 = 0.6003) of 744.39 ± 0.17 kg/m3 and a mass density (313.15 K, x1 = 0.6994) of 754.72 ± 0.17 kg/m3. It also gave a mass density (313.15 K, x1 = 0.8) of 764.89 ± 0.16 kg/m3, a mass density (313.15 K, x1 = 0.9001) of 774.76 ± 0.16 kg/m3 and a mass density (313.15 K, x1 = 1) of 784.35 ± 0.15 kg/m3. It also gave a viscosity (318.15 K, x1 = 0.0999) of 0.446 ± 0.072 mPa·s, a viscosity (318.15 K, x1 = 0.2002) of 0.482 ± 0.077 mPa·s and a viscosity (318.15 K, x1 = 0.3001) of 0.519 ± 0.083 mPa·s. It also gave a viscosity (318.15 K, x1 = 0.3996) of 0.561 ± 0.09 mPa·s, a viscosity (318.15 K, x1 = 0.5005) of 0.607 ± 0.097 mPa·s and a viscosity (318.15 K, x1 = 0.6003) of 0.654 ± 0.11 mPa·s. For the same molecule, the viscosity (318.15 K, x1 = 0.6994) was 0.708 ± 0.11 mPa·s, the viscosity (318.15 K, x1 = 0.8) was 0.765 ± 0.12 mPa·s and the viscosity (318.15 K, x1 = 0.9001) was 0.829 ± 0.13 mPa·s. For the same molecule, the viscosity (318.15 K, x1 = 1) was 0.9 ± 0.14 mPa·s, the mass density (318.15 K, x1 = 0.0999) was 683.64 ± 0.19 kg/m3 and the mass density (318.15 K, x1 = 0.2002) was 695.56 ± 0.19 kg/m3. For the same molecule, the mass density (318.15 K, x1 = 0.3001) was 707.24 ± 0.18 kg/m3, the mass density (318.15 K, x1 = 0.3996) was 718.6 ± 0.18 kg/m3 and the mass density (318.15 K, x1 = 0.5005) was 729.73 ± 0.17 kg/m3. The mass density (318.15 K, x1 = 0.6003) was 740.43 ± 0.17 kg/m3, the mass density (318.15 K, x1 = 0.6994) was 750.82 ± 0.17 kg/m3 and the mass density (318.15 K, x1 = 0.8) was 760.98 ± 0.16 kg/m3. For the same molecule, the mass density (318.15 K, x1 = 0.9001) was 770.84 ± 0.16 kg/m3, the mass density (318.15 K, x1 = 1) was 780.49 ± 0.15 kg/m3 and the viscosity (323.15 K, x1 = 0.0999) was 0.427 ± 0.068 mPa·s. For the same molecule, the viscosity (323.15 K, x1 = 0.2002) was 0.46 ± 0.074 mPa·s, the viscosity (323.15 K, x1 = 0.3001) was 0.496 ± 0.08 mPa·s and the viscosity (323.15 K, x1 = 0.3996) was 0.534 ± 0.086 mPa·s. For the same molecule, the viscosity (323.15 K, x1 = 0.5005) was 0.575 ± 0.092 mPa·s, the viscosity (323.15 K, x1 = 0.6003) was 0.62 ± 0.099 mPa·s and the viscosity (323.15 K, x1 = 0.6994) was 0.668 ± 0.11 mPa·s. For the same molecule, the viscosity (323.15 K, x1 = 0.8) was 0.721 ± 0.12 mPa·s, the viscosity (323.15 K, x1 = 0.9001) was 0.779 ± 0.12 mPa·s and the viscosity (323.15 K, x1 = 1) was 0.844 ± 0.14 mPa·s. For the same molecule, the mass density (323.15 K, x1 = 0.0999) was 679.45 ± 0.19 kg/m3, the mass density (323.15 K, x1 = 0.2002) was 691.42 ± 0.19 kg/m3 and the mass density (323.15 K, x1 = 0.3001) was 703.16 ± 0.18 kg/m3. It also gave a mass density (323.15 K, x1 = 0.3996) of 714.56 ± 0.18 kg/m3, a mass density (323.15 K, x1 = 0.5005) of 725.73 ± 0.18 kg/m3 and a mass density (323.15 K, x1 = 0.6003) of 736.49 ± 0.17 kg/m3. The mass density (323.15 K, x1 = 0.6994) was 746.95 ± 0.17 kg/m3, the mass density (323.15 K, x1 = 0.8) was 757.16 ± 0.16 kg/m3 and the mass density (323.15 K, x1 = 0.9001) was 767.06 ± 0.16 kg/m3. The mass density (323.15 K, x1 = 1) was 776.7 ± 0.16 kg/m3, the viscosity (333.15 K, x1 = 0.0999) was 0.396 ± 0.064 mPa·s and the viscosity (333.15 K, x1 = 0.2002) was 0.424 ± 0.068 mPa·s. The viscosity (333.15 K, x1 = 0.3001) was 0.454 ± 0.073 mPa·s, the viscosity (333.15 K, x1 = 0.3996) was 0.487 ± 0.078 mPa·s and the viscosity (333.15 K, x1 = 0.5005) was 0.522 ± 0.084 mPa·s. The viscosity (333.15 K, x1 = 0.6003) was 0.56 ± 0.09 mPa·s, the viscosity (333.15 K, x1 = 0.6994) was 0.601 ± 0.096 mPa·s and the viscosity (333.15 K, x1 = 0.8) was 0.646 ± 0.1 mPa·s. For the same molecule, the viscosity (333.15 K, x1 = 0.9001) was 0.695 ± 0.11 mPa·s, the viscosity (333.15 K, x1 = 1) was 0.749 ± 0.12 mPa·s and the mass density (333.15 K, x1 = 0.0999) was 670.99 ± 0.19 kg/m3. It also gave a mass density (333.15 K, x1 = 0.2002) of 683.12 ± 0.19 kg/m3, a mass density (333.15 K, x1 = 0.3001) of 694.98 ± 0.19 kg/m3 and a mass density (333.15 K, x1 = 0.3996) of 706.46 ± 0.18 kg/m3. The mass density (333.15 K, x1 = 0.5005) was 717.7 ± 0.18 kg/m3, the mass density (333.15 K, x1 = 0.6003) was 728.53 ± 0.17 kg/m3 and the mass density (333.15 K, x1 = 0.6994) was 739.06 ± 0.17 kg/m3. The mass density (333.15 K, x1 = 0.8) was 749.37 ± 0.17 kg/m3, the mass density (333.15 K, x1 = 0.9001) was 759.38 ± 0.16 kg/m3 and the mass density (333.15 K, x1 = 1) was 769.09 ± 0.16 kg/m3. It also gave a viscosity (343.15 K, x1 = 0.0999) of 0.369 ± 0.059 mPa·s, a viscosity (343.15 K, x1 = 0.2002) of 0.394 ± 0.063 mPa·s and a viscosity (343.15 K, x1 = 0.3001) of 0.42 ± 0.067 mPa·s. It also gave a viscosity (343.15 K, x1 = 0.3996) of 0.448 ± 0.072 mPa·s, a viscosity (343.15 K, x1 = 0.5005) of 0.48 ± 0.077 mPa·s and a viscosity (343.15 K, x1 = 0.6003) of 0.51 ± 0.082 mPa·s. The viscosity (343.15 K, x1 = 0.6994) was 0.545 ± 0.087 mPa·s, the viscosity (343.15 K, x1 = 0.8) was 0.584 ± 0.094 mPa·s and the viscosity (343.15 K, x1 = 0.9001) was 0.626 ± 0.1 mPa·s. For the same molecule, the viscosity (343.15 K, x1 = 1) was 0.671 ± 0.11 mPa·s, the mass density (343.15 K, x1 = 0.0999) was 662.4 ± 0.2 kg/m3 and the mass density (343.15 K, x1 = 0.2002) was 674.66 ± 0.19 kg/m3. The mass density (343.15 K, x1 = 0.3001) was 686.64 ± 0.19 kg/m3, the mass density (343.15 K, x1 = 0.3996) was 698.25 ± 0.18 kg/m3 and the mass density (343.15 K, x1 = 0.5005) was 709.63 ± 0.18 kg/m3. For the same molecule, the mass density (343.15 K, x1 = 0.6003) was 720.57 ± 0.18 kg/m3, the mass density (343.15 K, x1 = 0.6994) was 731.21 ± 0.17 kg/m3 and the mass density (343.15 K, x1 = 0.8) was 741.57 ± 0.17 kg/m3. For the same molecule, the mass density (343.15 K, x1 = 0.9001) was 751.62 ± 0.16 kg/m3 and the mass density (343.15 K, x1 = 1) was 761.43 ± 0.16 kg/m3.
